Source: the supplement of paper PMC10307832

Experiments:
Assay in all cases: relative viability (nuclei count vs DMSO), 5 days (fraction); higher = more cells survive
[1] = compound: N[C@@H]1CCCN(c2c(/C=C3\SC(=O)NC3=O)cccc2-c2ccccc2)C1 [AZD1208] + NC(=O)Nc1cc(-c2cccc(F)c2)sc1C(=O)N[C@H]1CCCNC1 [AZD7762] (partner 0.2 µM)
Summary of the method: (§1)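 Each reported value is a median over duplicate plates. It expresses relative viability: treated-well nuclei count divided by vehicle-well nuclei count. Lung cancer cell lines in 1536-well plates were dosed by pin tool a day after seeding, alone with one drug or with a fixed anchor-drug dose plus five library-drug doses (not always all listed) in √10 steps, and nuclei were counted after 5 days.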

[2] = compound: N[C@@H]1CCCN(c2c(/C=C3\SC(=O)NC3=O)cccc2-c2ccccc2)C1 [AZD1208] + CS(=O)(=O)N1CCN(Cc2cc3nc(-c4cccc5[nH]ncc45)nc(N4CCOCC4)c3s2)CC1 [Pictilisib] (partner 1 µM)
Summary of the method: as §1

[3] = compound: CN1CCN(CC1)C2=CC(=C(C=C2)NC3=NC(=C(S3)C(=O)C4=C(C=CC=C4Cl)Cl)N)OC [XMD14-99] + O=C(c1cc(Cc2n[nH]c(=O)c3ccccc23)ccc1F)N1CCN(C(=O)C2CC2)CC1 [Olaparib] (partner 8 µM)
Summary of the method: as §1

[4] = compound: CN1CCN(CC1)C2=CC(=C(C=C2)NC3=NC(=C(S3)C(=O)C4=C(C=CC=C4Cl)Cl)N)OC [XMD14-99] + CCNC(=O)c1noc(-c2cc(C(C)C)c(O)cc2O)c1-c1ccc(CN2CCOCC2)cc1 [Luminespib] (partner 0.01 µM)
Summary of the method: as §1

Cell Line	relative viability ([1]; first compound 0.08 µM)	relative viability ([1]; first compound 0.253 µM)	relative viability ([1]; first compound 0.8 µM)	relative viability ([1]; first compound 2.53 µM)	relative viability ([1]; first compound 8 µM)	relative viability ([2]; first compound 0.08 µM)	relative viability ([2]; first compound 0.253 µM)	relative viability ([2]; first compound 0.8 µM)	relative viability ([2]; first compound 2.53 µM)	relative viability ([2]; first compound 8 µM)	relative viability ([3]; first compound 0.08 µM)	relative viability ([3]; first compound 0.8 µM)	relative viability ([3]; first compound 2.53 µM)	relative viability ([3]; first compound 8 µM)	relative viability ([4]; first compound 0.08 µM)	relative viability ([4]; first compound 0.8 µM)	relative viability ([4]; first compound 2.53 µM)	relative viability ([4]; first compound 8 µM)
NCI-H2405	0.676	0.636	0.699	0.705	0.629	0.394	0.397	0.333	0.373	0.385	0.839	0.918	0.758	0.723	0.659	0.767	0.861	0.475
NCI-H1355	0.75	0.836	0.686	0.732	0.628	0.419	0.39	0.35	0.349	0.306	0.72	0.708	0.715	0.493	0.843	0.799	0.67	0.617
NCI-H358	0.454	0.579	0.436	0.467	0.451	0.35	0.284	0.333	0.299	0.283	0.603	0.773	0.585	0.312	0.219	0.262	0.323	0.281
RERF-LC-KJ	0.991	1.08	0.631	0.759	0.611	0.434	0.526	0.464	0.438	0.368	0.986	0.856	0.882	0.648	1.26	1.13	1.05	0.822
NCI-H23	0.245	0.251	0.243	0.228	0.29	0.413	0.561	0.327	0.358	0.335	0.313	0.325	0.277	0.225	0.199	0.247	0.214	0.202
HOP-62	0.859	0.794	0.612	0.66	0.824	0.658	0.638	0.658	0.455	0.717	0.536	0.634	0.501	0.312	0.93	0.878	0.846	0.778
HARA	0.36	0.468	0.373	0.557	0.44	0.349	0.373	0.452	0.286	0.363	0.816	0.999	0.589	0.491	0.311	0.685	0.581	0.207
PC-14	0.404	0.429	0.366	0.324	0.414	0.617	0.743	0.436	0.584	0.482	0.276	0.248	0.164	0.0816	0.156	0.151	0.156	0.171
